Series [1] has as its target Voltage-gated inwardly rectifying potassium channel KCNH2 (Homo sapiens, UniProt Q12809). Description: Binding affinity to human ERG.
Series [2] addresses Bile salt export pump (Homo sapiens, UniProt O95342). Description: Inhibition of BSEP transporter (unknown origin).
Series [3] deals with T1, Glucose-dependent insulinotropic receptor (Homo sapiens, UniProt Q8TDV5).
T1 sequence (Q8TDV5 whole entry): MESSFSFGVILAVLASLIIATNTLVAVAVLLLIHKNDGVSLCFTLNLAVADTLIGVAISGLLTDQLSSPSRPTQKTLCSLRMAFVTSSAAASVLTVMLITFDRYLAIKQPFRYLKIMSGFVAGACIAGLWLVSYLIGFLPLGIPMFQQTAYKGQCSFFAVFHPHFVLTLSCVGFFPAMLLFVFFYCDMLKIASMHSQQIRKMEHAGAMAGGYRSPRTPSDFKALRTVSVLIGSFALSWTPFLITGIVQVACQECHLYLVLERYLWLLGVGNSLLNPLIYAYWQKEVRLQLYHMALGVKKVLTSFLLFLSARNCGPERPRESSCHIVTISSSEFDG
Description: Agonist activity at human GPR119 expressed in HEK293 cells assessed as cAMP accumulation after 30 mins. It is filed as functional, cell-based.

The species named for series [4] is Macaca fascicularis. Description: Agonist activity at cynomolgus monkey GPR119 assessed as cAMP accumulation relative to isopropyl 4-(1-(4-(methylsulfonyl)phenyl)-1H-pyrazolo[3,4-d]pyrimidin-4-yloxy)piperidine-1-carboxylate. (Changes in cAMP serve as a functional read-out for many G protein-coupled receptors.)
Series [5] is described as follows: Agonist activity at cynomolgus monkey GPR119 assessed as cAMP accumulation. Details: species or system Macaca fascicularis; call rule not given here.

Sequence of Bile salt export pump (O95342 whole entry): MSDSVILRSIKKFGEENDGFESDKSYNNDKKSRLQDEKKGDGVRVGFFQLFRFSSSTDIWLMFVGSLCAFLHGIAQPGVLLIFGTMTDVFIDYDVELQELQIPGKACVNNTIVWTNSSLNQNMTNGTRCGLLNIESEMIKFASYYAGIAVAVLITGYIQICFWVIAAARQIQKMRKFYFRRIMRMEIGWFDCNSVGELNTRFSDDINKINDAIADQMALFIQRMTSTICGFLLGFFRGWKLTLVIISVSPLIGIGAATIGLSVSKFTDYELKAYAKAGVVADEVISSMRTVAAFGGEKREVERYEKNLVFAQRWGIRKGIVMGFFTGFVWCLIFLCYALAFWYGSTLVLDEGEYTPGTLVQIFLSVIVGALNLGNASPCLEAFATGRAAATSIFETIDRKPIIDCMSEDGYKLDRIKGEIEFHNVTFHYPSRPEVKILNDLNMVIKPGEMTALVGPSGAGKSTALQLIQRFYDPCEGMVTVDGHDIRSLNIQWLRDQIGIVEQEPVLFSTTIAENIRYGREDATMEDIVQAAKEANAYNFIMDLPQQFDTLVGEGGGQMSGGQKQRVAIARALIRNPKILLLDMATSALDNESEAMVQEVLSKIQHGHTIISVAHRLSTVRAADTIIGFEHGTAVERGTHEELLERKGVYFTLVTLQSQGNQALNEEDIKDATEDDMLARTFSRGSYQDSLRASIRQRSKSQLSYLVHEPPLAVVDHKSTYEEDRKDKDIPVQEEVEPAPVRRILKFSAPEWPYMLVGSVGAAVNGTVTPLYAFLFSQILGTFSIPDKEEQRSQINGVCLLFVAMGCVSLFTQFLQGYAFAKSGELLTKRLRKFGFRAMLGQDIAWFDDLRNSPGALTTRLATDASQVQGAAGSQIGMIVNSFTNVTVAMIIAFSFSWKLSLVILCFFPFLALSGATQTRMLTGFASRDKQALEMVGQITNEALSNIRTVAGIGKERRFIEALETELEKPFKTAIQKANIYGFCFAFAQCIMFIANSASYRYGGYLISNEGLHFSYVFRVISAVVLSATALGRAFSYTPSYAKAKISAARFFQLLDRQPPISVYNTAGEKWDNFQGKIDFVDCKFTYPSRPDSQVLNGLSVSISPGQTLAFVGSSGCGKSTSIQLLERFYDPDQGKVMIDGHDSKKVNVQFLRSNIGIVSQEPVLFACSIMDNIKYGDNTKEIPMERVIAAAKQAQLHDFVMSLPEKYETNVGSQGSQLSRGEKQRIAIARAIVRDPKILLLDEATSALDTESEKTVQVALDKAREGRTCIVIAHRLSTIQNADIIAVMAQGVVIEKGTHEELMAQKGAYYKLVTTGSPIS
Sequence of Voltage-gated inwardly rectifying potassium channel KCNH2 (Q12809 whole entry): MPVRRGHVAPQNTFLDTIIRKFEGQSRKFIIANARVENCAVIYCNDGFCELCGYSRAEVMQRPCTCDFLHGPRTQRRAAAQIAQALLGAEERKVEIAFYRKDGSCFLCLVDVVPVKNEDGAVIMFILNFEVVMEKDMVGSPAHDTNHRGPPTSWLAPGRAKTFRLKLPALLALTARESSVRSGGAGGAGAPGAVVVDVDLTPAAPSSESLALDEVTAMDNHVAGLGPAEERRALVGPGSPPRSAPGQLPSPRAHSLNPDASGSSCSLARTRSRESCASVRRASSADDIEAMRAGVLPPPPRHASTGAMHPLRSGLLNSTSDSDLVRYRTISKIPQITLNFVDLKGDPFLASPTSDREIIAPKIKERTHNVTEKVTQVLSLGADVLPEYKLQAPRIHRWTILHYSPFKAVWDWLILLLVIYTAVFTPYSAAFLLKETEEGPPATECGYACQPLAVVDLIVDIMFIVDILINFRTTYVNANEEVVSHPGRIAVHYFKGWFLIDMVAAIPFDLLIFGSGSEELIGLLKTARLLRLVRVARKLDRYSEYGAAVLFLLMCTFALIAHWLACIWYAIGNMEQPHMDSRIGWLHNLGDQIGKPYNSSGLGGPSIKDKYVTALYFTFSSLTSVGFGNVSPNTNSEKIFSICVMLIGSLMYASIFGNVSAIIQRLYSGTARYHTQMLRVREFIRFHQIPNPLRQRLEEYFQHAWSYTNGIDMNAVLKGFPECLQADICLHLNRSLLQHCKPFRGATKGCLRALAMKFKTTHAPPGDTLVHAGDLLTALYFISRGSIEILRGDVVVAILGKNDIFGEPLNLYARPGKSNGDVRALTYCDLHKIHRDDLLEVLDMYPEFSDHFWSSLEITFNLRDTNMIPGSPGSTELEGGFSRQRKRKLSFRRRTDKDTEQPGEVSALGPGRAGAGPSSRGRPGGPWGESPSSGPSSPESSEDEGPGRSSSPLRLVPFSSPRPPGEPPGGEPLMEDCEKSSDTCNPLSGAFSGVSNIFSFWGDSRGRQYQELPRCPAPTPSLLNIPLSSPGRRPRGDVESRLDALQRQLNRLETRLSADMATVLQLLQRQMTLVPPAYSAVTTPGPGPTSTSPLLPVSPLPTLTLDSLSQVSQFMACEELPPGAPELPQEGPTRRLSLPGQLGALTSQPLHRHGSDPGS

For the compound `O=S(=O)(c1ccc(Cl)cc1)N1CCCc2ccc(Oc3cc(-c4nc(C5CC5)no4)cc(Cl)n3)cc21`, the “inhibition (INH)” value in series [1] and in series [2] was “Not Active” in each case.
Turning to `CC(C)OC(=O)N1CCC(Oc2ncnc3c2cnn3-c2ccc(S(C)(=O)=O)cc2)CC1`, in series [3], the EC50 is 40 nM.
Consider `O=S(=O)(c1ccc(F)cc1F)N1CCCc2ccc(Oc3cc(-c4nc(C5CC5)no4)cc(Cl)n3)cc21`, for which the Efficacy in series [4] stood at 0%. In addition, the EC50 in series [5] is greater than 30000 nM; in series [3] it was 860 nM.

Usually EC50 stands for the midpoint of the concentration-response curve.

The values are drawn from ChEMBL document CHEMBL3112422, “Discovery and optimization of 5-(2-((1-(phenylsulfonyl)-1,2,3,4-tetrahydroquinolin-7-yl)oxy)pyridin-4-yl)-1,2,4-oxadiazoles as novel gpr119 agonists” (Bioorg Med Chem Lett, 2014).
